Measurements: ChEMBL document CHEMBL1201862, “PubChem BioAssay data set” (2004)
Active and inactive are the calls of the source.

Legend:
BJ [1] = test: cytotoxicity toward BJ-TERT fibroblasts, dose response, cell-based, RAS-independent, luminescence (AID 1933); format: functional; details: Homo sapiens
Vero [2] = test: host cell cytotoxicity of antiviral hits, dose response, cytotoxicity control for West Nile virus antiviral project, secondary assay (AID 1650); format: functional; details: Chlorocebus sabaeus
BJ [3] = test: cells; format: functional, cell-based; details: Homo sapiens
[4] = Luminescence-based counterscreen assay for KLF5 inhibitors: dose response cell-based high throughput screening assay to identify cytotoxic compounds using the IEC-6 intestinal epithelial cell line. [Related pubchem assays: 1700 (Primary screen.), 1834 (Confirmation screen.), 1858 (Summary AID.), 1905 (Counterscreen.)]; format: functional
BJ [5] = test: cytotoxicity toward BJ-TERT-LT-ST fibroblasts, dose response, cell-based, RAS-independent, luminescence (AID 1935); format: functional; details: Homo sapiens;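 further: BJ fibroblasts immortalized with TERT plus LT and ST oncogenes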
[6] = cytotoxicity toward DRD oncogenic fibroblasts, dose response, cell-based, non-viral oncogenic, luminescence (AID 1934); format: functional; details: Homo sapiens
[7] = cytotoxicity in HEK-293T cells, dose response, cytotoxicity control for TCR NF-kB inhibitor project, luminescence, T-cell screen hits (AID 489026); format: functional, cell-based;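 further: cells exposed to compound about 14 hours before the viability readout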
BJ [8] = test: cytotoxicity toward Ras-transformed BJeLR fibroblasts, dose response, cell-based, alamar blue fluorescence, cherrypicked samples (AID 2631); format: functional; details: Homo sapiens;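 further: confirmatory dose-response assay in RAS-dependent BJ fibroblasts engineered with TERT, LT and ST, with cytotoxicity read by fluorescence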
Vero [9] = test: cells; format: functional; details: Chlorocebus sabaeus
Paired box protein Pax-8 = Paired box protein Pax-8 (Homo sapiens, UniProt Q06710); test: inhibitors of PAX8-driven TPO luciferase reporter, dose response, RMG-I cells, cherry-pick (AID 687027); format: functional, cell-based;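 further: luciferase reporter driven by Pax8 target thyroperoxidase promoter measured by SteadyGlo luminescence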
[10] = non-specific cell cytotoxicity, dose response, cytotoxicity control for PAX8 inhibitor project, plate reader, dry powder samples (AID 743021); format: functional, cell-based
Cytochrome P450 2C19 = Cytochrome P450 2C19 (Homo sapiens, UniProt P33261); test: Cytochrome panel assay with activity outcomes. Panel member name: p450-cyp2c19 Compounds with AC50 equal or less than 10 uM are considered active; format: functional; details: read-out: AC50
[11] = inhibitors of Vif binding to APOBEC3G peptide, primary screen, biochemical, TR-FRET, GST-Vif 1-94, biotin-A3G peptide, dose response retest (AID 1117319); format: functional;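 further: TR-FRET signal of purified GST-Vif binding a biotinylated A3G peptide; inhibitors lower the FRET signal by blocking Vif and A3G binding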
Cytochrome P450 3A4 = Cytochrome P450 3A4 (Homo sapiens, UniProt P08684);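 further: CYP3A4 tested as one member of a cytochrome P450 panel screen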
[12] = target: Protein-tyrosine kinase 2-beta (Homo sapiens, UniProt Q14289);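 further: potency of inhibitors of PYK2 kinase phosphorylation of poly-GT substrate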
Cytochrome P450 1A2 = target: T1, Cytochrome P450 1A2 (Homo sapiens, UniProt P05177);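 further: PubChem cytochrome P450 panel assay, CYP1A2 panel member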
T1 sequence (P05177 whole entry): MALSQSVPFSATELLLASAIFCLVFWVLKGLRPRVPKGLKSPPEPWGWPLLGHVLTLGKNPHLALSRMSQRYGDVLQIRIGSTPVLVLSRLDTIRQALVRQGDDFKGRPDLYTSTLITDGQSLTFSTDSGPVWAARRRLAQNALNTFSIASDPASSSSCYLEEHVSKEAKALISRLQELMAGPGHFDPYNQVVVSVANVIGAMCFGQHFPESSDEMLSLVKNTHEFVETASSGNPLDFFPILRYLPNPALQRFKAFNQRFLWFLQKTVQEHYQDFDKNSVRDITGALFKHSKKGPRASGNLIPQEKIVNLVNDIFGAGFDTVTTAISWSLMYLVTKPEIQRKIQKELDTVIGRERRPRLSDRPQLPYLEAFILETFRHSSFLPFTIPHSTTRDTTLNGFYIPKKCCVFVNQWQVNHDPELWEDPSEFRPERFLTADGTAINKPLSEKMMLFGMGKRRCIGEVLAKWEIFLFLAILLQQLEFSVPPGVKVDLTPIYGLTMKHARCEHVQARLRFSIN

Large T antigen = Large T antigen (Simian virus 40, UniProt P03070); format: functional, Betapolyomavirus macacae;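 further: Confirmatory-stage PubChem screen for compounds that inhibit SV40 T antigen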
[13] = target: Glucose-6-phosphate 1-dehydrogenase (Homo sapiens, UniProt P11413); test: human G6PD enzyme inhibitors, dose response, selectivity assay for P. falciparum G6PD inhibitor project, biochemical, fluorescence (AID 504792); format: functional
[14] = target: T2, Replicative DNA helicase DnaB (Mycobacterium tuberculosis, UniProt P9WMR3); test: DnaB intein splicing inhibitors, dose response, biochemical, cell-free fluorescence (AID 449749); format: functional
T2 sequence (P9WMR3 whole entry): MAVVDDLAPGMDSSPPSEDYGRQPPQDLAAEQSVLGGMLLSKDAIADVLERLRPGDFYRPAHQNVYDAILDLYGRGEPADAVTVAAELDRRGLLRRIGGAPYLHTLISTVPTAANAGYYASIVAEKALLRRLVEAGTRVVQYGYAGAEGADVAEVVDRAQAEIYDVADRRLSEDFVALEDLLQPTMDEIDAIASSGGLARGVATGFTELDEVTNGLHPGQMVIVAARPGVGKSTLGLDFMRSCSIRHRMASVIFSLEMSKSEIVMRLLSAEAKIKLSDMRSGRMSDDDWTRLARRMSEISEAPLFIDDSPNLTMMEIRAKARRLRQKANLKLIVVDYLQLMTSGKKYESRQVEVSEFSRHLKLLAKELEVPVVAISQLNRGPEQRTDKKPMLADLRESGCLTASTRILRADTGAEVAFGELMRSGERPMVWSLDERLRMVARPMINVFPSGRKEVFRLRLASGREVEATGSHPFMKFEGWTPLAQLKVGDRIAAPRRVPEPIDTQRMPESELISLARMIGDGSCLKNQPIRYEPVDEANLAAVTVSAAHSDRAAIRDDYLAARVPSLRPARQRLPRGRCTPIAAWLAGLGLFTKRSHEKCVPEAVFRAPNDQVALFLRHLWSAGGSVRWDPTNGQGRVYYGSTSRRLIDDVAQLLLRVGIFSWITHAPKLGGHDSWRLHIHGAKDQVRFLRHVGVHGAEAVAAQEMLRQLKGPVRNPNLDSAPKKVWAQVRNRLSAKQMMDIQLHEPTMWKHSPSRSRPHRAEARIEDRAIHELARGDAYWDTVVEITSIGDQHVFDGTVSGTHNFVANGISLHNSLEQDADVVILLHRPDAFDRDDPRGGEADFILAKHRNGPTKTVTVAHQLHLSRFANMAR

Protein RecA = target: T3, Protein RecA (Mycobacterium tuberculosis, UniProt P9WHJ3); test: Fluorescence Cell-Free Homogeneous Dose Retest to Identify Inhibitors of RecA-Intein Splicing Activity. [Related pubchem assays (depositor defined):AID2097, AID2223, AID489010, AID492950]; format: functional
T3 sequence (P9WHJ3 whole entry): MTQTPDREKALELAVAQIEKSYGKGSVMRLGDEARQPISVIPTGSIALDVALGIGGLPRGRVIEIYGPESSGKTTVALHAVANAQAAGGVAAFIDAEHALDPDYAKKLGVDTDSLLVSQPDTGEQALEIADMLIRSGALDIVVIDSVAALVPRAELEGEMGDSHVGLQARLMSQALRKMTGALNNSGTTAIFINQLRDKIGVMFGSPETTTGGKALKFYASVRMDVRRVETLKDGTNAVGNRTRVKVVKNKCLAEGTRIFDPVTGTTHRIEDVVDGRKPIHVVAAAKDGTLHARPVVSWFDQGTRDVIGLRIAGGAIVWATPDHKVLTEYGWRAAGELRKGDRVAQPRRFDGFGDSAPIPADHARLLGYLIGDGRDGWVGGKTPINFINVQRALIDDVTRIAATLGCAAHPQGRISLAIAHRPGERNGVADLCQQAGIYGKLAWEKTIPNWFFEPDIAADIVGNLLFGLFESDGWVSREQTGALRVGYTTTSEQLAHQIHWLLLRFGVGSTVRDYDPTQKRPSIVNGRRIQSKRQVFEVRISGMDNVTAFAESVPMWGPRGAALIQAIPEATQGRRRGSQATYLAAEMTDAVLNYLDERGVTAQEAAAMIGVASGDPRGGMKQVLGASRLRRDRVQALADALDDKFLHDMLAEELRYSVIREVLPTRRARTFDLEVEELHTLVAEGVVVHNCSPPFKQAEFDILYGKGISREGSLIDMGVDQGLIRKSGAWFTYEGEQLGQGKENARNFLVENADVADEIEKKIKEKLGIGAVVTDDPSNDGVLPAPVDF

Caspase-6 = target: T4, Caspase-6 (Homo sapiens, UniProt P55212); test: human caspase-6 inhibitors, dose response, biochemical, VEID-R110 fluorescence, cherry-pick (AID 720632)
T4 sequence (P55212 whole entry): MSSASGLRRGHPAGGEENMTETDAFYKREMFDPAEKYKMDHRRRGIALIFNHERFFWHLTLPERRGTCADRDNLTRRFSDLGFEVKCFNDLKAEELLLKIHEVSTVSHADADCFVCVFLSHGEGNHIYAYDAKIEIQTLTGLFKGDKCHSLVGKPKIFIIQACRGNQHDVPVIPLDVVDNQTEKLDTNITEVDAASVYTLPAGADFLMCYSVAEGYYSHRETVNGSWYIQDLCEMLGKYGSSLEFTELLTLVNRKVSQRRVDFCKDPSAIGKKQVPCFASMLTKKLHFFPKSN

Caspase-9 = target: T5, Caspase-9 (Homo sapiens, UniProt P55211); test: caspase-9 enzyme inhibition, dose response, selectivity assay for caspase-6 inhibitor project, biochemical, fluorescence, plate reader, cherry-picked samples (AID 743293)
T5 sequence (P55211 whole entry): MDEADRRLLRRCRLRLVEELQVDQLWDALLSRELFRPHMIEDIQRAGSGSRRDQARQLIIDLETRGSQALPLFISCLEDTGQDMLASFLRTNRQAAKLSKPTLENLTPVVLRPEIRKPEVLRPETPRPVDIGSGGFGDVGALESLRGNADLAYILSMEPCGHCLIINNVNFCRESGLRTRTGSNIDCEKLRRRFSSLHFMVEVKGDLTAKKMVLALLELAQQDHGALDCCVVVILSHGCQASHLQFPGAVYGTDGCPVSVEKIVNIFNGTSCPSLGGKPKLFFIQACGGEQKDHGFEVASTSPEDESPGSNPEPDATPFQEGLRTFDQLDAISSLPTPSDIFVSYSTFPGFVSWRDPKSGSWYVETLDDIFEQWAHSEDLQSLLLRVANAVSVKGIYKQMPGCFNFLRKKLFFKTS

Caspase-7 = target: T6, Caspase-7 (Homo sapiens, UniProt P55210); test: human caspase-7 inhibitors, dose response, selectivity assay for caspase-6 inhibitor project, biochemical, DEVD-R110 fluorescence, cherry-pick (AID 743295)
T6 sequence (P55210 whole entry): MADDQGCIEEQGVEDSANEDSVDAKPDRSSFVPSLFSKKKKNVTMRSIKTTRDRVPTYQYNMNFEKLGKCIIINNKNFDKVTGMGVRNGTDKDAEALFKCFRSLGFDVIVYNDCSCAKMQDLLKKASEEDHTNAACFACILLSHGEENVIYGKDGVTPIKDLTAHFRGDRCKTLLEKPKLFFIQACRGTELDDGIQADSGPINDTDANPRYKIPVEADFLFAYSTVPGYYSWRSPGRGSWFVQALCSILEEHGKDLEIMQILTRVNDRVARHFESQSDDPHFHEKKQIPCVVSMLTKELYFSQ

[15] = Luminescence Cell-Based Dose Retest to Confirm Inhibitors of Cancer Stem Cells. [Related pubchem assays (depositor defined):AID2717, AID2721]; format: functional; details: Homo sapiens
[16] = target: T7, RNA-editing ligase 1, mitochondrial (Trypanosoma brucei brucei, UniProt P86926); test: TbREL1 ligase inhibitors, dose response, biochemical, fluorescence, Trypanosoma brucei (AID 1117295); format: functional
T7 sequence (P86926 whole entry): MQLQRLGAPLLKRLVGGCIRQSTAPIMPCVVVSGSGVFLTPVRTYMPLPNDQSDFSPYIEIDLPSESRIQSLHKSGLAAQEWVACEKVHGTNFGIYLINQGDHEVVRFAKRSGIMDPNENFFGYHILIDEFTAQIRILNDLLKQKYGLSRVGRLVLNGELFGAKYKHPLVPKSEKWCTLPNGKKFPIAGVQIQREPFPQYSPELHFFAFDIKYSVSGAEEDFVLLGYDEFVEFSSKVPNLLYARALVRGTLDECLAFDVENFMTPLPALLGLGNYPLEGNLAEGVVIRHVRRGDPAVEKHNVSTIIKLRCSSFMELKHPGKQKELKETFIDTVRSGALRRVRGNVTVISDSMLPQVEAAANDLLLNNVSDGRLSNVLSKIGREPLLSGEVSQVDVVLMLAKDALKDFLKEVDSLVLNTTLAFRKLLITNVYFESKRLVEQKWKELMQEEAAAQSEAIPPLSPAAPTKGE

Chain of Protein-tyrosine kinase 2-beta (Q14289 whole entry): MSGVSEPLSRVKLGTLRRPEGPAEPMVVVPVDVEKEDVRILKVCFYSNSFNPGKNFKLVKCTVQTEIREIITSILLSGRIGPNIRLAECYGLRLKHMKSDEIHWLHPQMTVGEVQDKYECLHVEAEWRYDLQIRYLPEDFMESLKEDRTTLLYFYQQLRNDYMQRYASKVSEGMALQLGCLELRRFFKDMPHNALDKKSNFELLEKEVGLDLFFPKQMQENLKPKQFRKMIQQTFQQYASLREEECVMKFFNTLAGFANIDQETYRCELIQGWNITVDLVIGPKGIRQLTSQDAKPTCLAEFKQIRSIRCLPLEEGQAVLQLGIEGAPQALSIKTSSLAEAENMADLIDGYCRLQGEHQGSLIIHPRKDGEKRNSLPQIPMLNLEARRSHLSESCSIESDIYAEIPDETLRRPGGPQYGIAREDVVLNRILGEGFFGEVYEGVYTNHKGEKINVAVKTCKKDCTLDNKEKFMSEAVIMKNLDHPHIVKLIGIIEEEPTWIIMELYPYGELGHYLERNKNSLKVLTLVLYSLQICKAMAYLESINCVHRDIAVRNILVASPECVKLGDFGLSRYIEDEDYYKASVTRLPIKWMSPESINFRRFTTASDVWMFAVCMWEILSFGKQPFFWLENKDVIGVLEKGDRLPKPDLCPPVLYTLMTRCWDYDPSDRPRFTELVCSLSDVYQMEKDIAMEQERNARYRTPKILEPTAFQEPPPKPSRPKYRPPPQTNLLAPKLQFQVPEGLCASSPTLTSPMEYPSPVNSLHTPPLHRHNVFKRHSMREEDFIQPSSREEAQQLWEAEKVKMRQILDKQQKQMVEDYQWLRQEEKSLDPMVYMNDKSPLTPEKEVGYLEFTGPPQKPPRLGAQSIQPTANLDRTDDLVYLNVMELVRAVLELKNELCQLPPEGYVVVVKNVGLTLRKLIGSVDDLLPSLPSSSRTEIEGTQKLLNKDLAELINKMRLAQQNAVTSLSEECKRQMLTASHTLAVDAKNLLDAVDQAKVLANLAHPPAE
Chain of Glucose-6-phosphate 1-dehydrogenase (P11413 whole entry): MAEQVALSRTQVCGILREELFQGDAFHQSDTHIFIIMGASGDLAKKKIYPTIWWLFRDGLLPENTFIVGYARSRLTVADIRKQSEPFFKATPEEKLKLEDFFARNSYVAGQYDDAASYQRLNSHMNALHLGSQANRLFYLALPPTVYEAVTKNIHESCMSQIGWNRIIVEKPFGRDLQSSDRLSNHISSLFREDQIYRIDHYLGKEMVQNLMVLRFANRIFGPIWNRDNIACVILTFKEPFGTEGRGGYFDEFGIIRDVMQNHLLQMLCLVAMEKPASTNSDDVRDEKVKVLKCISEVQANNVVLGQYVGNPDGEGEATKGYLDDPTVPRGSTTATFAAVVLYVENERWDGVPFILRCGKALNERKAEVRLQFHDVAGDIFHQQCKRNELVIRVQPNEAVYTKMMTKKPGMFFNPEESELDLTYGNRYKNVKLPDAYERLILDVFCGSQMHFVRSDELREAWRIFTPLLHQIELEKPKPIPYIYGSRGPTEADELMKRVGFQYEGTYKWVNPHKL
Chain of Cytochrome P450 2C19 (P33261 whole entry): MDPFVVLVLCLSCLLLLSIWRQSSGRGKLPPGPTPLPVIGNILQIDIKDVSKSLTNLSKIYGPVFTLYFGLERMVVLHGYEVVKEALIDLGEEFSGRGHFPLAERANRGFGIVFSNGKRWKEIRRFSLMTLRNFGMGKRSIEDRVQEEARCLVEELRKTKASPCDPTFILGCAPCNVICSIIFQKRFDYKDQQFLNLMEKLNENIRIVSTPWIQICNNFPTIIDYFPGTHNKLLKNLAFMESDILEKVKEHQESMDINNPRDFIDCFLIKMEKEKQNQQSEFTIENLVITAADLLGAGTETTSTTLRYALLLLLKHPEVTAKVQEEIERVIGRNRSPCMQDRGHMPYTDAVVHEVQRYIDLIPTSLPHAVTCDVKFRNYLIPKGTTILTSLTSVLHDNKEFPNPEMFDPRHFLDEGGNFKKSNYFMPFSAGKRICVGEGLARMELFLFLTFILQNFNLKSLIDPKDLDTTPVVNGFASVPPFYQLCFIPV
Chain of Cytochrome P450 3A4 (P08684 whole entry): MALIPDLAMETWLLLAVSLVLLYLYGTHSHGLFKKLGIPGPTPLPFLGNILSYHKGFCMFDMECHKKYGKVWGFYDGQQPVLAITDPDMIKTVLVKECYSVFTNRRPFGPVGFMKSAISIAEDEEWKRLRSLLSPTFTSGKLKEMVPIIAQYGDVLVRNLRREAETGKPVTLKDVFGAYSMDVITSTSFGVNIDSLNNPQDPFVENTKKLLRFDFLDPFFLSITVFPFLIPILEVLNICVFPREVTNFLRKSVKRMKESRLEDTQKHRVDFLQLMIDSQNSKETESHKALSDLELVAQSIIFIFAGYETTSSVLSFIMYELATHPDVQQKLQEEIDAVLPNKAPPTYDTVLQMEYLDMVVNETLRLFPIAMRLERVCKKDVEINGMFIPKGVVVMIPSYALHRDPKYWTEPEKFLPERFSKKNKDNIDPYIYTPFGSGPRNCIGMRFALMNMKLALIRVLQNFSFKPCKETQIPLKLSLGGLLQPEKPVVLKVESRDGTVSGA
Chain of Large T antigen (P03070 whole entry): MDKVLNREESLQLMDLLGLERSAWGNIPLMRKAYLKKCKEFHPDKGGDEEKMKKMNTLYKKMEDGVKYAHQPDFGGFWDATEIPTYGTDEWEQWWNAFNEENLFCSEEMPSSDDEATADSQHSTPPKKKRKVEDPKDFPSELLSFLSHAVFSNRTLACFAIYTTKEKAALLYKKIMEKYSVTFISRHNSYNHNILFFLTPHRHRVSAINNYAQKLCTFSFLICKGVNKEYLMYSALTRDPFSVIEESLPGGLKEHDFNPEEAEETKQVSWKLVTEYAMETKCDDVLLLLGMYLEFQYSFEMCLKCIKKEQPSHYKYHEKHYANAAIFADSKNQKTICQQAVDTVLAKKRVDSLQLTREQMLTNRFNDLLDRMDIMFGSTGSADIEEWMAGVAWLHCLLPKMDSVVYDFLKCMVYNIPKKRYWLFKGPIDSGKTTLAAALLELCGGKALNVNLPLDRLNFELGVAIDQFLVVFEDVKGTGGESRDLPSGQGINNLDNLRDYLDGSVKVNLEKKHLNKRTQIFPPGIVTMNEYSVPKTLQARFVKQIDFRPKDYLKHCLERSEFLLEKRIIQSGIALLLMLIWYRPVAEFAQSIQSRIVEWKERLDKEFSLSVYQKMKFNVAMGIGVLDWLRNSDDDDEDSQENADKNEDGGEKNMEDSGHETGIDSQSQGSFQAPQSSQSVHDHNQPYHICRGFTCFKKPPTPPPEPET
Chain of Paired box protein Pax-8 (Q06710 whole entry): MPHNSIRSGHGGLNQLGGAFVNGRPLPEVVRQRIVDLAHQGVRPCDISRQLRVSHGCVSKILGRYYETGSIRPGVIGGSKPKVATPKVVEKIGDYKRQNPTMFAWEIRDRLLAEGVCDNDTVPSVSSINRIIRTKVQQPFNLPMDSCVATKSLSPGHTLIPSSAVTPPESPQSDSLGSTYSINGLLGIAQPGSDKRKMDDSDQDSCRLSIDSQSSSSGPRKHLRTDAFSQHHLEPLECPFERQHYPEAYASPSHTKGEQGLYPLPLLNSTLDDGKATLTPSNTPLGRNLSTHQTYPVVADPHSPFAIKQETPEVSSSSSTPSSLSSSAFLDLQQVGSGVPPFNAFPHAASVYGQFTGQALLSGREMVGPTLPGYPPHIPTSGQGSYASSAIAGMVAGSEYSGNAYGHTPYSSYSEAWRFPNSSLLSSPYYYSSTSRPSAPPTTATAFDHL

Structure (SMILES): C[C@]12CCC3C(CCC4=CC(O)CC[C@@]43/C=N/O)C1(O)CCC2C1=CC(=O)OC1 (stereo partly specified)
- EC50 (BJ [1]): 1.9 µM (active)
- CC50 (Vero [2]): 0.79 µM (active)
- EC50 (BJ [3]): 2.56 µM (active)
- IC50 [4]: > 39.8 µM (not active)
- EC50 (BJ [5]): 2.36 µM (inconclusive)
- EC50 [6]: 2.33 µM (active)
- IC50 [7]: > 80 µM (inactive)
- EC50 (BJ [8]): 0.391 µM (active)
- CC50 (Vero [9]): 1.34 µM (active)
- AC50 (Paired box protein Pax-8): 2.22 µM (active)
- AC50 [10]: 50.2 µM (active)

Structure (SMILES): COC(=O)C(Cc1c[nH]c2ccccc12)NC(=O)C(C)C (stereo unspecified)
- AC50 (Cytochrome P450 2C19): 22.4 µM (inconclusive)
- IC50 [11]: > 100 µM (active)
- AC50 (Cytochrome P450 3A4): 31.6 µM (inconclusive)

Structure (SMILES): CC(C)(C)C(=O)NC(=C(Cl)Cl)P(=O)(O)O
- IC50 [12]: 9.26 µM (active)
- AC50 (Cytochrome P450 1A2): 0.1 µM (inconclusive)

Structure (SMILES): Nc1c(O)cccc1C(=O)O
- IC50 (Large T antigen): 20.1 µM (active)
- IC50 [13]: 24 µM (inactive)
- AC50 [14]: > 380 µM (inactive)
- EC50 (Protein RecA): 5.43 µM (active)
- AC50 (Caspase-6): 1.59 µM (active)
- AC50 (Caspase-9): > 70 µM (inactive)
- AC50 (Caspase-7): 6.14 µM (active)

Structure (SMILES): COc1ccc2nc(C)cc(SCC(=O)N/N=C/c3cccc4ccccc34)c2c1
- IC50 [12]: 2.57 µM (active)
- AC50 [15]: 1.11 µM (active)

Structure (SMILES): CCC(=O)c1ccccc1OCCCN1CCC(Cc2ccccc2)CC1
- IC50 [16]: > 96.6 µM (inactive)

Structure (SMILES): C[C@@H]1CC=C[C@H]2[C@H]1C(=O)N(Cc1ccccc1)[C@H]2c1ccc(F)c(Br)c1
- CC50 (Vero [2]): 24.1 µM (active)
- AC50 [14]: 5.04 µM (active)
- EC50 (Protein RecA): 23 µM (active)

Structure (SMILES): O=C(CSc1nnc(-c2cccnc2)n1Cc1ccco1)c1ccc(Br)cc1
- IC50 [11]: > 100 µM (active)

Structure (SMILES): O=C1CCCCC1Oc1ccc2ccc(=O)oc2c1 (stereo unspecified)
- IC50 [11]: > 100 µM (active)
